Data reported in ChEMBL document CHEMBL5244246, “Recent advances in chemistry and bioactivity of marine cyanobacteria Moorea species” (Eur J Med Chem, 2020).
Values after ≈ are worked out from the molar mass of the structure shown. Values joined by “and” are separate entries in the source; they are usually repeats but may differ in a detail not shown here. Equal values may be shown once.

Assays:
Nitzschia amabilis = test: Growth inhibition of marine diatom assessed as inhibition rate at 10 ug/ml relative to control; type: functional
MCF7 = test: Cytotoxicity against human MCF7 cells assessed as inhibition of cell growth; type: functional, cell-based
L1210 [1] = test: Cytotoxicity against mouse L1210 cells assessed as inhibition of cell growth at 10 ug/mL relative to control; type: functional; settings: for inhibition (INH): dose 10 µg/ml; for inhibition at 10 µg/mL: Mus musculus, L1210, dose 10 µg/ml
[2] = Toxicity in brine shrimp assessed as lethal dose; settings: artemia salina; read-out: LD50 (the source's name)
[3] = system: Mycobacterium tuberculosis; test: Antimycobacterial activity against Mycobacterium tuberculosis H37Rv assessed as inhibition of bacterial growth at 12.5 ug/ml relative to control; type: functional
HT-29 = test: Cytotoxicity against human HT-29 cells assessed as cell growth inhibition; type: functional
A549 = test: Cytotoxicity against human A549 cells assessed as cell growth inhibition; type: functional, cell-based
MDA-MB-231 = test: Cytotoxicity against human MDA-MB-231 cells assessed as cell growth inhibition; type: functional
L1210 [4] = test: Cytotoxicity against mouse L1210 cells assessed as inhibition of cell growth; type: functional, cell-based
[5] = Toxicity in shrimp assessed as lethal dose; settings: palaemon paucidens
[6] = target: Protein kinase C delta type (Homo sapiens, UniProt Q05655); test: Inhibition of [3H]-PDBu binding to PKCdelta C1B domain (unknown origin) by competitive binding assay
N2a = test: Cytotoxicity against mouse Neuro2a cells assessed as inhibition of cell growth; type: functional, cell-based
NCI-H460 = test: Cytotoxicity against human NCI-H460 cells; type: functional, cell-based
HeLa = test: Cytotoxicity against human HeLa cells assessed as inhibition of cell growth incubated for 48 hrs by WST-8 colorimetric assay; type: functional, cell-based

Protein kinase C delta type, sequence (Q05655 whole entry, the tested form may be a part): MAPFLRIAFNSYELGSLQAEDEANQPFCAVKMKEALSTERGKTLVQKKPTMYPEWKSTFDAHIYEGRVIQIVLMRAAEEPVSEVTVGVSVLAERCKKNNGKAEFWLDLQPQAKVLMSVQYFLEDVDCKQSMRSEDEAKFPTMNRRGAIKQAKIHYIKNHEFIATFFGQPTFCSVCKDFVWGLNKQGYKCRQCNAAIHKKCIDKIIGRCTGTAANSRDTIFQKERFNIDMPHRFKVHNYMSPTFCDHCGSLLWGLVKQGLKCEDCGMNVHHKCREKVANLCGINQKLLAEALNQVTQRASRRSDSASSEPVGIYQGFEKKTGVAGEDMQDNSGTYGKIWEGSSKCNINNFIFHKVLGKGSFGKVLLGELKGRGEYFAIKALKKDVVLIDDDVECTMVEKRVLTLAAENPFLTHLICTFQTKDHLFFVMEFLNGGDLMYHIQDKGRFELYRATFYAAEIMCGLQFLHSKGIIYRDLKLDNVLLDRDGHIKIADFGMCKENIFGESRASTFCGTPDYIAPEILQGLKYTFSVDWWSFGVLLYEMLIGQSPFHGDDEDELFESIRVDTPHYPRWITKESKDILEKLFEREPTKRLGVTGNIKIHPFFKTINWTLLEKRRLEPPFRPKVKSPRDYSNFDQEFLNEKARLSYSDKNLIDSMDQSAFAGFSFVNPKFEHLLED

## CO[C@@H](CC[C@H](C)[C@H]1O[C@]23C[C@H](OC(=O)C[C@H]([C@@H](C)O)OC(=O)CC(=C(C)CC2(C)C)O3)[C@@H]1C)c1cc(O)ccc1Br
Nitzschia amabilis
  inhibition at 10 µg/mL: 30%

## CC(=O)n1c(=O)ccn([C@H]2C[C@H](O)[C@@H](CO)O2)c1=O
MCF7
  IC50: 18.2 µg/mL (≈ 67.3 µM)

## CO[C@@H](CC[C@H](C)[C@H]1O[C@@]23C[C@H](OC(=O)C[C@H]([C@@H](C)O)OC(=O)/C=C(\O2)[C@]2(CO2)CC3(C)C)[C@@H]1C)c1cc(O)ccc1Br
L1210 [1]
  inhibition (INH): 10% and 25%
Nitzschia amabilis
  inhibition at 10 µg/mL: 30%

## COC(=O)C(CCCCCC(Cl)Cl)C(CCCC#CC=C(Cl)Cl)NC=O (stereo unspecified)
[2]
  LC50: 1.7 µg/mL

## CCCCCCCCCCCC/C=C/C[C@@H](O)[C@H](CO[C@@H]1O[C@H](CO)[C@@H](O)[C@H](O)[C@H]1O)NC(=O)CCCCCCCCCCCCCCCCCCCCCCCCC
MCF7
  IC50: 18.2 µg/mL (≈ 21.7 µM)

## CCCCCCC[C@@H](C/C=C/CCC(=O)O)OC
[3]
  inhibition at 12.5 µg/mL: 65%
HT-29
  GI50: 40 µM
A549
  GI50: 40 µM
MDA-MB-231
  GI50: 40 µM

## CO[C@@H](CC[C@H](C)[C@H]1O[C@@]23C[C@H](OC(=O)C[C@H]([C@@H](C)O)OC(=O)/C=C(\O2)[C@@](C)(OO)CC3(C)C)[C@@H]1C)c1cccc(O)c1
L1210 [1]
  inhibition at 10 µg/mL: 10%

## CCCCCCCCC(O)C/C=C/CCC(=O)N(C)C/C(=C\Cl)C/C(=C\C(=O)N1CC(OC)=CC1=O)OC (stereo unspecified)
L1210 [4]
  IC50: 2.9 µM
[5]
  LD50: 33.3 mg/kg

## C=C[C@@](C)(CCC=C(C)C)c1ccc2c3c(c[nH]c13)C[C@@H](CO)NC(=O)[C@H](C(C)C)N2C
[6]
  Ki: 0.00011 µM
L1210 [4]
  IC50: 8.1 µM
[5]
  LD100: 5 mg/kg

## CO/C(=C/C(=O)N1C(=O)C=C[C@@H]1C)CCNC(=O)CC/C=C/C(C)CC/C(=C\Cl)CCCC#CBr (stereo partly specified)
N2a; Mus musculus, N2a
  IC50: 15 µM
NCI-H460
  IC50: 15 µM

## CO[C@@H](CC[C@H](C)[C@H]1O[C@@]23C[C@H](OC(=O)C[C@H]([C@@H](C)O)OC(=O)C[C@](O)(O2)[C@H](C)CC3(C)C)[C@@H]1C)c1cccc(O)c1 [DEBROMOAPLYSIATOXIN]
Nitzschia amabilis
  inhibition at 10 µg/mL: 30%

## CO[C@@H](CC[C@H](C)[C@H]1O[C@@]23C[C@H](OC(=O)C[C@H]([C@@H](C)O)OC(=O)/C=C(\O2)[C@@](C)(O)CC3(C)C)[C@@H]1C)c1cc(O)ccc1Br
L1210 [1]
  inhibition at 10 µg/mL: 10%
  inhibition (INH): 20%
Nitzschia amabilis
  inhibition at 10 µg/mL: 30%

## CCC[C@H]1NC(=O)c2csc(n2)[C@H](C)NC(=O)[C@H](C(C)C)N(C)C(=O)[C@H](Cc2ccccc2)N(C)C(=O)[C@H](C)OC(=O)[C@@H]1C [ULONGAMIDE A]
N2a; n2a
  IC50: 6 µM and 16 µM
[2]
  LC50: 18 µM

## CO[C@@H](CC[C@H](C)[C@H]1O[C@@]2(C[C@H](OC)[C@@H]1C)OC(CC(=O)O[C@@H]1CC(=O)O[C@@H]1C)=C(C)CC2(C)C)c1cc(O)ccc1Br
Nitzschia amabilis
  inhibition at 10 µg/mL: 30%

## CO[C@@H](CC[C@H](C)[C@@H]1CC=C[C@]2(O1)[C@H](C(=O)O[C@@H]1CC(=O)O[C@@H]1C)C(=O)[C@H](C)CC2(C)C)c1cc(O)ccc1Br
Nitzschia amabilis
  inhibition at 10 µg/mL: 30%

## CCC1CC(C)CC(=O)N(C)/C=C/CCC(C)C(=O)N[C@@H](C(C)C)C(=O)N(C)[C@@H](Cc2ccccc2)C(=O)N(C)[C@@H]([C@@H](C)O)C(=O)N(C)[C@@H](Cc2ccccc2)C(=O)O1 (stereo partly specified)
N2a; Mus musculus, N2a
  IC50: 6 µM
[2]
  LC50: 9 µM

## COC(=O)C(CCC#CC=C(Cl)Cl)C(CCCC#CCC(Cl)Cl)NC=O (stereo unspecified)
[2]
  LC50: 1.7 µg/mL

## CO[C@@H](CC[C@H](C)[C@H]1O[C@@]23C[C@H](OC(=O)C[C@@H]([C@@H](C)O)OC(=O)C[C@](OC)(O2)[C@H](C)CC3(C)C)[C@@H]1C)c1cc(O)ccc1Br
Nitzschia amabilis
  inhibition at 10 µg/mL: 30%

## C=C[C@@](C)(CCC=C(C)C)c1ccc2c3c(c[nH]c13)C[C@@H](CO)NC(=O)[C@@H](C(C)C)N2C
[6]
  Ki: 0.017 µM
L1210 [4]
  IC50: 20.4 µM
[5]
  LD100: 7.5 mg/kg

## CCCCCCCCCCCCCC/C=C/CCC1OC1C(=O)N[C@H](C)CO (stereo partly specified)
[2]
  LC50: 13 µM

## CCCCCCCC[C@@H](C/C=C/CCC(=O)N(C)C/C(=C\Cl)C/C(=C\C(=O)N1CC(OC)=CC1=O)OC)OC
L1210 [4]
  IC50: 2.9 µM

## CC[C@@H](C)[C@H]1C(=O)N2CCC[C@H]2C(=O)O[C@H](C(C)(C)C)C[C@@H](C)C[C@H](O)[C@@H](C)C2=N[C@@H](/C=C(\C)C(=O)N[C@@H](Cc3ccc(OC)cc3)C(=O)N(C)[C@@H](C)C(=O)N1C)CS2
HeLa
  IC50: 0.19 µM

## CC[C@@H](C)[C@H]1C(=O)N2CCC[C@H]2C(=O)O[C@H](C(C)(C)C)C[C@@H](C)C[C@H](O)[C@H](C)C2=N[C@@H](/C=C(\C)C(=O)N[C@@H](Cc3ccc(OCCCCCCCn4cc(-c5ccccc5)nn4)cc3)C(=O)N(C)[C@@H](C)C(=O)N1C)CS2
HeLa
  IC50: 0.05 µM

## CC[C@@H](C)[C@H]1C(=O)N2CCC[C@H]2C(=O)O[C@H](C(C)(C)C)C[C@@H](C)C[C@H](O)[C@H](C)C2=N[C@@H](/C=C(\C)C(=O)N[C@@H](Cc3ccc(OCCCCCCCN=[N+]=[N-])cc3)C(=O)N(C)[C@@H](C)C(=O)N1C)CS2
HeLa
  IC50: 0.08 µM

## CCCCCCC[C@@H](C/C=C/CCC(=O)N(C)C/C(=C\Cl)C/C(=C\C(=O)N1CC=CC1=O)OC)OC
[3]
  inhibition at 12.5 µg/mL: 10%
HT-29
  GI50: 40 µM
A549
  GI50: 40 µM
MDA-MB-231
  GI50: 40 µM

## CCCCCCC[C@@H](C/C=C/CCC(=O)N(C)C/C(=C/Cl)C/C(=C\C(=O)N1CC(O)CC1=O)OC)OC (stereo partly specified)
[3]
  inhibition at 12.5 µg/mL: 10%
HT-29
  GI50: 40 µM
A549
  GI50: 40 µM
MDA-MB-231
  GI50: 40 µM

## CCCCCCC[C@@H](C/C=C/CCC(=O)N(C)C/C(=C/Cl)C/C(=C\C(=O)N1CC(OC)=CC1=O)OC)OC
[3]
  inhibition at 12.5 µg/mL: 10%
HT-29
  GI50: 40 µM
A549
  GI50: 40 µM
MDA-MB-231
  GI50: 40 µM

## C=CC/C=C/N(C)C(=O)CCCCCCCC/C=C/[C@H](CSSC[C@@H](/C=C/CCCCCCCCC(=O)N(C)/C=C/CC=C)NC(C)=O)NC(C)=O
N2a; Mus musculus, N2a
  IC50: 1.4 µg/mL

## CCCCCCCC[C@@H](C/C=C/CCC(=O)N(C)C/C(=C\Cl)C/C(=C\C(=O)N1C[C@H](O)CC1=O)OC)OC
L1210 [4]
  IC50: 2.9 µM

## CO[C@@H](CC[C@H](C)[C@H]1O[C@]23C[C@H](OC(=O)C[C@H]([C@@H](C)O)OC(=O)C(O)C(=C(C)CC2(C)C)O3)[C@@H]1C)c1cc(O)ccc1Br (stereo partly specified)
L1210 [1]
  inhibition at 10 µg/mL: 10%
  inhibition (INH): 20%
Nitzschia amabilis
  inhibition at 10 µg/mL: 30%

## CO[C@@H](CC[C@H](C)[C@H]1O[C@@]23C[C@H](OC(=O)C[C@H]([C@@H](C)O)OC(=O)/C=C(\O2)[C@@](C)(O)CC3(C)C)[C@@H]1C)c1cccc(O)c1
Nitzschia amabilis
  inhibition at 10 µg/mL: 30%

## CO[C@@H](CC[C@H](C)[C@H]1O[C@]23C[C@H](OC(=O)C[C@@H]([C@@H](C)O)OC(=O)CC(=C(C)CC2(C)C)O3)[C@@H]1C)c1cccc(O)c1
Nitzschia amabilis
  inhibition at 10 µg/mL: 30%

## CCCCCCCC[C@@H](C/C=C/CCC(=O)NC/C(=C/Cl)C1=CCCCC1=O)OC
N2a; Mus musculus, N2a
  IC50: 0.49 µM
NCI-H460
  IC50: 1.1 µM

## COC(=O)C(CCCCCC(Cl)Cl)C(CCCC#C/C=C/Cl)NC=O (stereo unspecified)
[2]
  LC50: 1.7 µg/mL

## COc1ccc(C[C@@H]2NC(=O)/C(C)=C/C3CSC(=N3)[C@@H](C)[C@@H](O)C[C@H](C)C[C@@H](C(C)(C)C)OC(=O)[C@H](C)N(C)C(=O)[C@H](C(C)C)N(C)C(=O)[C@H](C)N(C)C2=O)cc1 (stereo partly specified)
NCI-H460
  IC50: 0.014 µM

## CO[C@@H](CC[C@H](C)[C@H]1OC2=C(/C(=C/C(=O)O[C@@H]3CC(=O)O[C@@H]3C)[C@H](C)CC2(C)C)[C@H](OC)[C@@H]1C)c1cc(O)ccc1Br
Nitzschia amabilis
  inhibition at 10 µg/mL: 30%

## CCCCCCCCCCC[C@]1(CO)CCCC(=O)O1 [TANIKOLIDE]
[2]
  LC50: 3.6 µg/mL

## COC(=O)C(CCC#CC=C(Cl)Cl)C(CCC/C=C/CC(Cl)Cl)NC=O (stereo unspecified)
[2]
  LC50: 1.7 µg/mL

## CCCCCCCC[C@@H](C/C=C/CCC(=O)NC/C(=C/Cl)[C@]12O[C@H]1[C@H](O)CCC2=O)OC
N2a; Mus musculus, N2a
  IC50: 4 µM
NCI-H460
  IC50: 4 µM

## CO[C@@H](CC[C@H](C)C1O[C@@]2(C=C[C@@H]1C)[C@H](C(=O)O[C@@H]1CC(=O)O[C@@H]1C)C(=O)[C@H](C)CC2(C)C)c1cccc(O)c1 (stereo partly specified)
Nitzschia amabilis
  inhibition at 10 µg/mL: 30%

## COC(=O)[C@H](CCC#CC=C(Cl)Cl)[C@@H](CCCC#CCC(Cl)Cl)NC=O
[2]
  LC50: 1.7 µg/mL

## CO[C@@H](CC[C@H](C)[C@H]1O[C@@]23C[C@H](OC(=O)C[C@H]([C@@H](C)O)OC(=O)/C=C(\O2)[C@@](C)(OO)CC3(C)C)[C@@H]1C)c1cc(O)ccc1Br
Nitzschia amabilis
  inhibition at 10 µg/mL: 30%

## O=c1ccn([C@H]2C[C@H](O)[C@@H](CO)O2)c(=O)n1CCc1ccccc1
MCF7
  IC50: 18.2 µg/mL (≈ 54.8 µM)

## CC[C@H](C)[C@H]1C(=O)N(C)[C@@H](C)C(=O)O[C@H](C(C)(C)C)C[C@@H](C)C[C@H](O)[C@H](C)C2=NC(/C=C(\C)C(=O)N[C@@H](Cc3ccc(OC)cc3)C(=O)N(C)[C@@H](C)C(=O)N1C)CS2 (stereo partly specified)
NCI-H460
  IC50: 0.002 µM
